Assays:
P. falciparum (FCB-1) = assay: short-term in vitro invasion assay (newly invaded ring stages counted by microscopy); format: cell-based, Plasmodium falciparum
Experimental: Asexual blood stages of P. falciparum (FCB-1) were maintained at 37° C. in RPMI 1640/Albumax medium (Gibco) supplemented with 2 mM L-glutamine as previously described (Blackman, 1994 Methods Cell Biol. 45, 213-220). Cultures were gassed with 7% CO2, 5% O2 and 88% N2 and maintained by routine passage in fresh human erythrocytes. Parasites were synchronised by Percoll and sorbitol treatment (Holder & Freeman, 1982 J. Exp. Med. 156, 1528-1538); schizonts were purified by centrifugation over Percoll and then returned to culture in the presence of fresh erythrocytes. After 4 h, during which time released merozoites invaded erythrocytes, the cells were treated with 5% sorbitol for 10 min to lyse the residual schizonts, before returning the parasites to culture.
Compounds were tested for their ability to inhibit invasion in vitro, using two approaches: a short-term assay in which the number of newly invaded erythrocytes was counted using microscopy, and a growth assay measuring uptake of [^3H] hypoxanthine. In the short term-assay (described previously by Blackman et al, 1990 J. Exp. Med. 172, 379-382), compounds were incubated with purified P. falciparum schizonts at ^˜2% parasitaemia and ^˜2% haematocrit in triplicate cultures. After between 6 and 24 h, blood smears were stained with Giemsa's reagent and examined by microscopy. […]

MSP142 [1] = target: T1, MSP142 (Plasmodium falciparum, UniProt Q8I0U8); assay: competition binding of analogues 258 and 264 against suramin; settings: MSP142 0.1 mg/ml, 1 hour
Experimental: MSP142 (0.1 mg/ml) and fixed concentrations of analogue 258 (5 μM) or 264 (10 μM) were premixed and 90 μL added to a 384-well black polypropylene plate. Suramin was added to give a final concentration in the range 0.01 to 200 μM in a total reaction volume of 100 μL. The plates were incubated at room temperature protected from light for 1 hour, and then read as before. Results are shown in FIG. 10, which is a graph of fluorescence (arbitary units) against concentration of suramin competitor for analogue 258 (white squares) and 264 (black circles).

P. vivax MSP142 = target: T2, P. vivax MSP142 (Plasmodium vivax, UniProt Q02569, A1444G/T1362K/T1451N); assay: isothermal titration calorimetry; format: binding
T2 sequence (Q02569 1325-1704 T1362K/A1444G/T1451N): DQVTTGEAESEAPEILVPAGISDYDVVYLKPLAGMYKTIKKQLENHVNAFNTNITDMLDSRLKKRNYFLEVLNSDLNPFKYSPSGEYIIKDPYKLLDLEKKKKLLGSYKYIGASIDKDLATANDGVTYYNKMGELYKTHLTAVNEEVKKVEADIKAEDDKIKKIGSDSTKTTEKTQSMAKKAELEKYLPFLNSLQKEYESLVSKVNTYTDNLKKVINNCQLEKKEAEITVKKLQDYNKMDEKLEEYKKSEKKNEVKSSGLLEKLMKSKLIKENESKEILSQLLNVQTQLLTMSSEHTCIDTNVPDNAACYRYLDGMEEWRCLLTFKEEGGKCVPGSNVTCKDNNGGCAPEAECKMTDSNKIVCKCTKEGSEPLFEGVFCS
Source text: The MSP142 protein from P. vivax was cloned into plasmid jmp28, a modified pET-28 vector that encodes an N-terminal peptide MHHHHHHIEGRWIL immediately upstream of the inserted sequence. P. vivax (Belem strain) DNA was used as a template for PCR based cloning. The sequence of the expressed protein (following the vector encoded N-terminal peptide) corresponded to residues Asp 1325 to Ser 1704, Accession number A39401.
The protein was expressed in BL21(DE3)pLysS cells by induction of a culture at an OD600 of 0.6-0.8 with IPTG at a final concentration of 1 mM. The cells were induced for 3 h at 37° C. and then harvested by centrifugation. The cells were lysed using the Bugbuster protein extraction reagent (Novagen), after centrifugation of the cell lysate, the pellet containing the MSP142 was dissolved in 6M Guanidine-HCl, 100 mM Na2HPO4, 10 mM Tris-HCl, pH 8.0. This was applied to a Ni-NTA column, washed with 10 column volumes of the loading buffer, followed by 6 column volumes of 8 M Urea, 100 mM Na2HPO4, 10 mM Tris-HCl, at pH 7.0, and 6 column volumes at pH 6.1. The protein was eluted in 3 column volumes 8 M Urea, 100 mM Na2HPO4, 10 mM Tris-HCl, pH 4.3. […]
In addition to the fluorimetry, isothermal titration calorimetry (ITC) was performed using a Microcal omega VP-ITC (MicroCal Inc., Northampton, Mass.). […] The heat of dilution of suramin into buffer was determined in control experiments. […]

MSP142 [2] = target: T1, MSP142; assay: titration of fluorescent analogues against MSP142; format: binding
Experimental: Analogues 258, 261, 264 and 266 were titrated against (a) PBS buffer only, (b) 0.1 mg/ml bovine serum albumin in PBS or (c) 0.1 mg/ml MSP142 in PBS. Fluorescence observed was compared to naphthalenetrisulphate (non-specific reagent) and suramin.

Cc1ccc(C(=O)Nc2ccc(S(=O)(=O)O)c3cc(S(=O)(=O)O)cc(S(=O)(=O)O)c23)cc1NC(=O)c1cccc(NC(=O)Nc2cccc(C(=O)Nc3cc(C(=O)Nc4ccc(S(=O)(=O)O)c5cc(S(=O)(=O)O)cc(S(=O)(=O)O)c45)ccc3C)c2)c1 [suramin]
inhibition of merozoite invasion of erythrocytes (microscopy, Giemsa) (P. falciparum (FCB-1)): inhibited merozoite invasion of erythrocytes | inhibition of merozoite release from schizonts (microscopy) (P. falciparum (FCB-1)): did not inhibit merozoite release from schizonts | IC50 (MSP142 [1]; IC50, displacement of analogue 258 from MSP1 by suramin, analogue 258 at 5 μM): 8000 nM | IC50 (MSP142 [1]; IC50, displacement of analogue 264 from MSP1 by suramin, analogue 264 at 10 μM): 3000 nM | Kd (P. vivax MSP142): 300 ± 100 nM | AH value (P. vivax MSP142; ITC, 25° C.): 11 ± 1 kcal/mol | EC50 (MSP142 [2]): ~2000 nM | fluorescence in the presence of MSP142 (MSP142 [2]; 0.1 mg/ml MSP142 in PBS, 0.01-200 μM): became fluorescent in the presence of MSP142 specifically
